Tests used:
Type in all cases: in vivo
[1] = tested on: barnyardgrass (Echinochloa crus-galli); assay: Test A preemergence, barnyardgrass; conditions: 0 to 100 scale, 0 is no effect, 100 is complete control
Summary of the method: (§1)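 Greenhouse test; plants at one- to two-leaf stage (2–10 cm) sprayed postemergence with compound in non-phytotoxic solvent/surfactant mix, or soil sprayed preemergence after seeding in loam–sand blend. Injury rated visually versus untreated controls after about 10 d, 0 (no effect) to 100 (complete control).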

[2] = tested on: kochia (Kochia scoparia); assay: Test A preemergence, kochia; conditions: 0 to 100 scale, 0 is no effect, 100 is complete control
Summary of the method: as §1

[3] = tested on: ragweed (common ragweed, Ambrosia elatior); assay: Test A preemergence, ragweed; conditions: 0 to 100 scale, 0 is no effect, 100 is complete control
Summary of the method: as §1

[4] = tested on: ryegrass, Italian (Lolium multiflorum); assay: Test A preemergence, Italian ryegrass; conditions: 0 to 100 scale, 0 is no effect, 100 is complete control
Summary of the method: as §1

[5] = tested on: foxtail, giant (Setaria faberii); assay: Test A preemergence, giant foxtail; conditions: 0 to 100 scale, 0 is no effect, 100 is complete control
Summary of the method: as §1

[6] = tested on: pigweed (Amaranthus retroflexus); assay: Test A preemergence, pigweed; conditions: 0 to 100 scale, 0 is no effect, 100 is complete control
Summary of the method: as §1

[7] = tested on: barnyardgrass (Echinochloa crus-galli); assay: Test A postemergence, barnyardgrass; conditions: 0 to 100 scale, 0 no effect, 100 complete control
Summary of the method: as §1

[8] = tested on: kochia (Kochia scoparia); assay: Test A postemergence, kochia; conditions: 0 to 100 scale, 0 no effect, 100 complete control
Summary of the method: as §1

[9] = tested on: ragweed (common ragweed, Ambrosia elatior); assay: Test A postemergence, ragweed; conditions: 0 to 100 scale, 0 no effect, 100 complete control
Summary of the method: as §1

[10] = tested on: ryegrass, Italian (Lolium multiflorum); assay: Test A postemergence, Italian ryegrass; conditions: 0 to 100 scale, 0 no effect, 100 complete control
Summary of the method: as §1

[11] = tested on: foxtail, giant (Setaria faberii); assay: Test A postemergence, giant foxtail; conditions: 0 to 100 scale, 0 no effect, 100 complete control
Summary of the method: as §1

[12] = tested on: pigweed (Amaranthus retroflexus); assay: Test A postemergence, pigweed; conditions: 0 to 100 scale, 0 no effect, 100 complete control
Summary of the method: as §1

[13] = tested on: wheat (Triticum aestivum); assay: Test A postemergence, wheat; conditions: 0 to 100 scale, 0 no effect, 100 complete control
Summary of the method: as §1

[14] = tested on: corn (Zea mays); assay: Test A postemergence, corn; conditions: 0 to 100 scale, 0 no effect, 100 complete control
Summary of the method: as §1

[15] = tested on: blackgrass (Alopecurus myosuroides); assay: Test A postemergence, blackgrass; conditions: 0 to 100 scale, 0 no effect, 100 complete control
Summary of the method: as §1

[16] = tested on: galium (catchweed bedstraw, Galium aparine); assay: Test A postemergence, galium; conditions: 0 to 100 scale, 0 no effect, 100 complete control
Summary of the method: as §1

[17] = tested on: rice (Oryza sativa); assay: Test B flooded paddy test, rice; conditions: Flood, 250 g ai/ha, applied to paddy water, 2-leaf stage, visual evaluation after 13 to 15 d
Summary of the method: (§2)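 Application was made into paddy water of pots flooded 3 cm deep at treatment, with seedlings at the 2-leaf stage. That flood level was kept throughout, and plants stayed under glass 13 to 15 d before visual assessment on a 0–100 control scale.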

[18] = tested on: sedge, umbrella (small-flower umbrella sedge, Cyperus difformis); assay: Test B flooded paddy test, umbrella sedge; conditions: Flood, 250 g ai/ha, applied to paddy water, 2-leaf stage, visual evaluation after 13 to 15 d
Summary of the method: as §2

[19] = tested on: ducksalad (Heteranthera limosa); assay: Test B flooded paddy test, ducksalad; conditions: Flood, 250 g ai/ha, applied to paddy water, 2-leaf stage, visual evaluation after 13 to 15 d
Summary of the method: as §2

[20] = tested on: barnyardgrass (Echinochloa crus-galli); assay: Test B flooded paddy test, barnyardgrass; conditions: Flood, 250 g ai/ha, applied to paddy water, 2-leaf stage, visual evaluation after 13 to 15 d
Summary of the method: as §2

| SMILES | Barnyardgrass plant response rating ([1]; 125 g ai/ha) | Barnyardgrass plant response rating ([1]; 500 g ai/ha) | Kochia plant response rating ([2]; 125 g ai/ha) | Kochia plant response rating ([2]; 500 g ai/ha) | Ragweed plant response rating ([3]; 125 g ai/ha) | Ragweed plant response rating ([3]; 500 g ai/ha) | Ryegrass, Italian plant response rating ([4]; 125 g ai/ha) | Ryegrass, Italian plant response rating ([4]; 500 g ai/ha) | Foxtail, Giant plant response rating ([5]; 125 g ai/ha) | Foxtail, Giant plant response rating ([5]; 500 g ai/ha) | Pigweed plant response rating ([6]; 125 g ai/ha) | Pigweed plant response rating ([6]; 500 g ai/ha) | Plant response rating, Barnyardgrass ([7]; 125 g ai/ha) | Plant response rating, Barnyardgrass ([7]; 500 g ai/ha) | Plant response rating, Kochia ([8]; 125 g ai/ha) | Plant response rating, Kochia ([8]; 500 g ai/ha) | Plant response rating, Ragweed ([9]; 125 g ai/ha) | Plant response rating, Ragweed ([9]; 500 g ai/ha) | Plant response rating, Ryegrass, Italian ([10]; 125 g ai/ha) | Plant response rating, Ryegrass, Italian ([10]; 500 g ai/ha) | further results |
| --- | --- | --- | --- | --- | --- | --- | --- | --- | --- | --- | --- | --- | --- | --- | --- | --- | --- | --- | --- | --- | --- |
| Nc1nc(N[C@H](c2coc3ccccc23)C2CC2)ncc1C(F)(F)F [Compound 78] | 0 | 0 | 80 | 90 | 0 | 20 | 20 | 50 | 0 | 0 | 0 | 20 | 0 | 0 | 0 | 20 | 0 | 0 | 0 | 0 | Plant response rating, Foxtail, Giant ([11]; 125 g ai/ha): 0; Plant response rating, Foxtail, Giant ([11]; 500 g ai/ha): 0; Plant response rating, Pigweed ([12]; 125 g ai/ha): 60; Plant response rating, Pigweed ([12]; 500 g ai/ha): 70; Plant response rating, Wheat ([13]; 125 g ai/ha): 0; Plant response rating, Wheat ([13]; 500 g ai/ha): 0; Plant response rating, Corn ([14]; 125 g ai/ha): 0; Plant response rating, Corn ([14]; 500 g ai/ha): 0; Plant response rating, Blackgrass ([15]; 125 g ai/ha): 0; Plant response rating, Blackgrass ([15]; 500 g ai/ha): 0; Plant response rating, Galium ([16]; 125 g ai/ha): 0; Plant response rating, Galium ([16]; 500 g ai/ha): 10; Plant response rating, Rice (0 to 100 scale, 0 is no effect, 100 is complete control) [17]: 0; Plant response rating, Sedge, Umbrella (0 to 100 scale, 0 is no effect, 100 is complete control) [18]: 0; Plant response rating, Ducksalad (0 to 100 scale, 0 is no effect, 100 is complete control) [19]: 0; Plant response rating, Barnyardgrass (0 to 100 scale, 0 is no effect, 100 is complete control) [20]: 0 |
| Nc1nc(N[C@@H](c2coc3ccccc23)C2CC2)ncc1C(F)(F)F [Compound 79, N2-[(R)-3-benzofuranylcyclopropylmethyl]-5-(trifluoromethyl)-2,4-pyrimidinediamine] | 90 | 100 | 0 | 0 | 100 | 100 | 100 | 100 | 100 | 100 | 90 | 100 | 70 | 100 | 90 | 90 | 80 | 90 | 60 | 80 | Plant response rating, Foxtail, Giant ([11]; 125 g ai/ha): 60; Plant response rating, Foxtail, Giant ([11]; 500 g ai/ha): 90; Plant response rating, Pigweed ([12]; 125 g ai/ha): 100; Plant response rating, Pigweed ([12]; 500 g ai/ha): 100; Plant response rating, Wheat ([13]; 125 g ai/ha): 0; Plant response rating, Wheat ([13]; 500 g ai/ha): 20; Plant response rating, Corn ([14]; 125 g ai/ha): 0; Plant response rating, Corn ([14]; 500 g ai/ha): 70; Plant response rating, Blackgrass ([15]; 125 g ai/ha): 60; Plant response rating, Blackgrass ([15]; 500 g ai/ha): 90; Plant response rating, Galium ([16]; 125 g ai/ha): 70; Plant response rating, Galium ([16]; 500 g ai/ha): 90; Plant response rating, Rice (0 to 100 scale, 0 is no effect, 100 is complete control) [17]: 10; Plant response rating, Sedge, Umbrella (0 to 100 scale, 0 is no effect, 100 is complete control) [18]: 95; Plant response rating, Ducksalad (0 to 100 scale, 0 is no effect, 100 is complete control) [19]: 98; Plant response rating, Barnyardgrass (0 to 100 scale, 0 is no effect, 100 is complete control) [20]: 55 |

— patent US20220119354A1, “DIAMINO-SUBSTITUTED PYRIDINES AND PYRIMIDINES AS HERBICIDES” (FMC Corporation, priority 2019, published 2022)
